Reference: paper PMC4089482, “Bacterial periplasmic sialic acid-binding proteins exhibit a conserved binding site” (Acta Crystallographica Section D: Biological Crystallography, 2014)
“Also recorded” adds a separate entry of the source. Read-outs that look alike come from different tables or passages of the source.

What was measured:
Fn-SiaP = Fn-SiaP (Fusobacterium nucleatum subsp. nucleatum, UniProt Q8RDN9); assay: ITC binding of sialic acids to Fn-SiaP; conditions: 25°C; for H (change in enthalpy, ΔH) / Kd / T S (entropic component): 20 mM HEPES pH 8.0, 10 mM NaCl
Protocol: (§1) ITC measurements were performed using a MicroCal ITC system (GE Healthcare). The reaction buffer for all of the experiments was 20 mM HEPES pH 8.0, 10 mM NaCl. All titrations were carried out at 25°C. The protein concentration was determined using the Bio-Rad Bradford reagent. The concentrations of SiaP and Neu5Ac/Neu5Gc were varied in the different titrations and each binding experiment was repeated three times. The nonspecific heat released by the dilution of both the sugars and the protein was calculated by averaging the heat liberated during the last 3–5 injections after saturation. This value was then subtracted from the raw heat released during each injection. To derive the stoichiometric values, the data sets were analyzed using a single-site binding model from the Origin ITC analysis software (MicroCal). In this analysis, the values for the stoichiometry, the change in enthalpy (ΔH) and the affinity were fitted using nonlinear least-squares analysis. To derive the values for the affinity, ΔS and ΔH, data sets were globally analyzed using the single-site binding model in SEDPHAT (Vistica et al., 2004[▶]; Dam & Schuck, 2005[▶]).

Vc-SiaP = biological target: T1, Vc-SiaP (Vibrio cholerae serotype O1, UniProt Q9KR64); assay: ITC binding of sialic acids to Vc-SiaP; conditions: 25°C; for H (change in enthalpy, ΔH) / Kd / T S (entropic component): 20 mM HEPES pH 8.0, 10 mM NaCl
T1 construct: PCR-amplified using the forward primer 5′-[…]-3′; made in house; host or cells: Escherichia coli BL21 (DE3)
T1 sequence (Q9KR64 23-321): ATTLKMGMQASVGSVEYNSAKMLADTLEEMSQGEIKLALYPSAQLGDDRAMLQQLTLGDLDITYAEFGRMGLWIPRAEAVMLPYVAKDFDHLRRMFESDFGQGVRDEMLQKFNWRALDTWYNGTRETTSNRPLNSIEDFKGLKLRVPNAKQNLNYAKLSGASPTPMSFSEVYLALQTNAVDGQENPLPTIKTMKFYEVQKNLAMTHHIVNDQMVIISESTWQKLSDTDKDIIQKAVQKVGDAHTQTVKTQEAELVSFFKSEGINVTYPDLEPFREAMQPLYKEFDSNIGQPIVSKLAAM
Protocol: as §1

Pm-SiaP = Pm-SiaP (Pasteurella multocida, UniProt Q9CKB5); assay: ITC binding of sialic acids to Pm-SiaP
Protocol: as §1

[1] = tested on: V. cholerae O1 biovar eltor strain N16961; assay: Growth-curve experiment in M9 minimal medium with different sugars; type: cell-based, Vibrio cholerae; conditions: M9 minimal medium supplemented with sugar (5 mg ml^−1; all at 5 mM), 37°C
Protocol: V. cholerae O1 biovar eltor strain N16961 was initially grown on LB agar plates. Subsequently, 3 ml M9 minimal medium supplemented with different sugars (5 mg ml^−1) was inoculated with bacteria at an OD600 of 0.07. These cultures were incubated in a 37°C shaker at 225 rev min^−1. Optical densities at A 600 were measured at various time points using a Spectronic GENESYS 20 Visible Spectrophotometer to observe the growth pattern of V. cholerae in different compounds. The different sugars used were Neu5Ac, Neu5Gc, fetuin (a glycoprotein of foetal serum that contains different sugars and sialic acid; Spiro, 1960[▶]), asialofetuin, galactose, glycerol, D-lactic acid, succinate, sucrose, DL-malic acid and fructose, all at 5 mM concentration. Based on the readings, a graph of OD600 was plotted.

Hi-SiaP E67A mutant = biological target: T2, Hi-SiaP E67A mutant (Haemophilus influenzae, UniProt P44542, E90A); assay: ITC binding of Neu5Ac to Hi-SiaP E67A
T2 construct: made in house
Protocol: as §1

Hi-SiaP T64R mutant = biological target: T3, Hi-SiaP T64R mutant (Haemophilus influenzae, UniProt P44542, T87R); assay: ITC binding of Neu5Ac to Hi-SiaP T64R; conditions: 25°C
T3 construct: made in house
Protocol: as §1

V. cholerae = assay: ELISA (3F11) of Neu5Ac incorporation onto surface LOS; type: cell-based, Vibrio cholerae
Protocol: V. cholerae was grown on sBHI agar plates containing 100 µM Neu5Ac and LB. Cells were harvested and resuspended in PBS (20 mM Na2HPO4, 150 mM NaCl pH 7.0) at an OD600 of 0.2. The wells of Costar 96-well EIA/RIA plates (Corning) were filled with 100 µl of the bacterial suspension and six wells were used for each experiment. The plates were dried at 40°C overnight. The plates were washed four times with buffer C (72 mM sodium acetate, 165 mM sodium chloride, 0.55% Tween 20) using an ELx50 Strip Washer (BioTek Instruments, Winooski, Vermont, USA). A neuraminidase digest was performed on three wells by adding 100 µl 0.01 U ml^−1 neuraminidase (Roche Diagnostics GmbH, Mannheim, Germany) diluted in neuraminidase buffer (50 mM sodium acetate, 154 mM NaCl, 9 mM CaCl2, 25 µg ml^−1 human serum albumin pH 5.6) and the other three wells were treated with just the buffer. The plate was incubated for 6 h at 37°C and the wells were then washed. The monoclonal antibody 3F11, diluted 1/200 in buffer C, was added to each well. The plates were incubated at 37°C overnight (approximately 18 h) followed by a wash. The secondary antibody, phosphatase-labelled goat anti-mouse IgM (Kirkegaard and Perry Laboratories, Gaithersburg, Maryland, USA), diluted 1/2000 in buffer C, was added. […] When a yellow colour had developed, the absorbance at 405 nm was read using a Microplate Autoreader EL311 (BioTek Instruments).

Hi-SiaP H209A mutant = biological target: T4, Hi-SiaP H209A mutant (Haemophilus influenzae, UniProt P44542, H232A); assay: ITC binding of Neu5Ac to Hi-SiaP H209A; conditions: 25°C
T4 construct: made in house
Protocol: as §1

Hi-SiaP N187Q mutant = biological target: T5, Hi-SiaP N187Q mutant (Haemophilus influenzae, UniProt P44542, N210Q); assay: ITC binding of Neu5Ac to Hi-SiaP N187Q; conditions: 25°C
T5 construct: made in house
Protocol: as §1

Hi-SiaP E186Q mutant = biological target: T6, Hi-SiaP E186Q mutant (Haemophilus influenzae, UniProt P44542, E209Q); assay: ITC binding of Neu5Ac to Hi-SiaP E186Q
T6 construct: made in house
Protocol: as §1

Hi-SiaP T64K mutant = biological target: T7, Hi-SiaP T64K mutant (Haemophilus influenzae, UniProt P44542, T87K); assay: ITC binding of Neu5Ac to Hi-SiaP T64K
T7 construct: made in house
Protocol: as §1

Hi-SiaP R127K mutant = biological target: T8, Hi-SiaP R127K mutant (Haemophilus influenzae, UniProt P44542, R150K); assay: ITC binding of Neu5Ac to Hi-SiaP R127K; conditions: 25°C
T8 construct: made in house
Protocol: as §1

Hi-SiaP wild type [2] = biological target: T9, Hi-SiaP wild type (Haemophilus influenzae, UniProt P44542); set-up: method as in Johnston et al. (2008); conditions: taken for comparison; ref Johnston et al. (2008); cited from earlier work
T9 construct: made in house

Hi-SiaP wild type [3] = biological target: T9, Hi-SiaP wild type; assay: ITC binding of Neu5Ac to wild-type Hi-SiaP
Protocol: as §1

[4] = ITC, 20 mM HEPES pH 8.0, 10 mM NaCl, 25°C
[5] = ITC, 20 mM HEPES pH 8.0, 10 mM NaCl, 25°C, read-out: K d

CC(=O)N[C@H]1[C@H]([C@H](O)[C@H](O)CO)OC(C(=O)O)=C[C@@H]1O [Neu5Ac2en, N-acetyl-2,3-dehydro-2-deoxyneuraminic acid]
interaction measured by ITC (Fn-SiaP): no measurable interaction | interaction measured by ITC (Vc-SiaP): no measurable interaction | interaction measured by ITC (Pm-SiaP; ITC, 25°C): no measurable interaction

CC(=O)NC1C(O)CC(O)(C(=O)O)OC1C(O)C(O)CO (stereo not drawn) [Neu5Ac]
growth of V. cholerae in the presence of the compound (OD600) [1]: grows | H (change in enthalpy, ΔH) (Fn-SiaP): 9165 calmol^1 | Kd (Fn-SiaP): 45.5 nM | T S (entropic component) (Fn-SiaP): 849.3 calmol^1 | affinity for Neu5Ac in words (Hi-SiaP E67A mutant): micromolar affinity | H (change in enthalpy, ΔH) (Hi-SiaP E67A mutant; 25°C): 249.5 calmol^1 | T S (entropic component) (Hi-SiaP E67A mutant; 25°C): 6168.6 calmol^1 | K d / binding to Neu5Ac (Hi-SiaP T64R mutant): No measurable binding | 3F11 binding of V. cholerae grown with Neu5Ac (ELISA) (V. cholerae; 100 µM Neu5Ac, binding did occur after neuraminidase: sialic acid incorporated into surface LOS): did not bind 3F11 | difference in absorbance before and after adding neuraminidase (level of Neu5Ac incorporation) (V. cholerae; 3F11 ELISA, Figure S4, very little difference in LB media control): significant difference | H (change in enthalpy, ΔH) (Hi-SiaP H209A mutant): 13360 calmol^1 | T S (entropic component) (Hi-SiaP H209A mutant): 4917 calmol^1 | H (change in enthalpy, ΔH) (Hi-SiaP N187Q mutant): 7939 calmol^1 | T S (entropic component) (Hi-SiaP N187Q mutant): 40.826 calmol^1 | affinity for Neu5Ac in words (Hi-SiaP E186Q mutant): micromolar affinity | H (change in enthalpy, ΔH) (Hi-SiaP E186Q mutant; 25°C): 6827 calmol^1 | T S (entropic component) (Hi-SiaP E186Q mutant; 25°C): 1016 calmol^1 | H (change in enthalpy, ΔH) (Vc-SiaP): 7175 calmol^1 | Kd (Vc-SiaP): 306 nM | T S (entropic component) (Vc-SiaP): 508.9 calmol^1 | H (change in enthalpy, ΔH) (Pm-SiaP; [4]): 6560 calmol^1 | T S (entropic component) (Pm-SiaP; [4]): 3948.2 calmol^1 | Kd (Pm-SiaP; [5]): 19.7 nM | Kd (Pm-SiaP; fit box of the isotherm in Figure 4, single-site model, read-out: K (association constant) (converted)): 27 nM | affinity for Neu5Ac in words (Hi-SiaP T64K mutant): micromolar affinity | H (change in enthalpy, ΔH) (Hi-SiaP T64K mutant; 25°C): 8743 calmol^1 | T S (entropic component) (Hi-SiaP T64K mutant; 25°C): 294.72 calmol^1 | K d / binding to Neu5Ac (Hi-SiaP R127K mutant): did not bind to Neu5Ac with measurable affinity; also recorded: No measurable binding | H (change in enthalpy, ΔH) (Hi-SiaP wild type [2]): 15300 calmol^1 | Kd (Hi-SiaP wild type [2]): 28 nM | T S (entropic component) (Hi-SiaP wild type [2]): 5000 calmol^1 | affinity for Neu5Ac in words (Hi-SiaP wild type [3]): nanomolar affinity | Kd (Hi-SiaP wild type [3]; 20 mM HEPES pH 8.0, 10 mM NaCl, 25°C): 16.6 nM | H (change in enthalpy, ΔH) (Hi-SiaP wild type [3]; 25°C): 17500 calmol^1 | T S (entropic component) (Hi-SiaP wild type [3]; 25°C): 6883 calmol^1

O=C(CO)N[C@H]1[C@H]([C@H](O)[C@H](O)CO)OC(O)(C(=O)O)C[C@@H]1O (stereo partly drawn) [Neu5Gc]
growth of V. cholerae in the presence of the compound (OD600) [1]: No growth; also recorded: cannot use Neu5Gc as a carbon source | H (change in enthalpy, ΔH) (Fn-SiaP): 12074 calmol^1 | Kd (Fn-SiaP): 45.7 nM | T S (entropic component) (Fn-SiaP): 2059.4 calmol^1 | H (change in enthalpy, ΔH) (Vc-SiaP): 5200 calmol^1 | Kd (Vc-SiaP): 1090 nM | T S (entropic component) (Vc-SiaP): 1127.6 calmol^1 | H (change in enthalpy, ΔH) (Pm-SiaP; [4]): 7469 calmol^1 | T S (entropic component) (Pm-SiaP; [4]): 2777.3 calmol^1 | Kd (Pm-SiaP; [5]): 30.7 nM

O=C(O)CCC(=O)O [succinate]
growth of V. cholerae in the presence of the compound (OD600) [1]: Little growth

B1: fetuin: a glycoprotein of foetal serum that contains different sugars and sialic acid (protein, UniProt P12763 19-359, looked up)
Alpha-2-HS-glycoprotein: IPLDPVAGYKEPACDDPDTEQAALAAVDYINKHLPRGYKHTLNQIDSVKVWPRRPTGEVYDIEIDTLETTCHVLDPTPLANCSVRQQTQHAVEGDCDIHVLKQDGQFSVLFTKCDSSPDSAEDVRKLCPDCPLLAPLNDSRVVHAVEVALATFNAESNGSYLQLVEISRAQFVPLPVSVSVEFAVAATDCIAKEVVDPTKCNLLAEKQYGFCKGSVIQKALGGEDVRVTCTLFQTQPVIPQPQPDGAEAEAPSAVPDAAGPTPSAAGPPVASVVVGPSVVAVPLPLHRAHYDLRHTFSGVASVESSSGEAFHVGKTPIVGQPSIPGGPVRLCPGRIRYFKI
growth of V. cholerae in the presence of the compound (OD600) [1]: grows

B2: asialofetunin: asialofetuin, used as a carbon source in the growth experiment (protein, UniProt P12763 19-359, looked up)
Alpha-2-HS-glycoprotein: IPLDPVAGYKEPACDDPDTEQAALAAVDYINKHLPRGYKHTLNQIDSVKVWPRRPTGEVYDIEIDTLETTCHVLDPTPLANCSVRQQTQHAVEGDCDIHVLKQDGQFSVLFTKCDSSPDSAEDVRKLCPDCPLLAPLNDSRVVHAVEVALATFNAESNGSYLQLVEISRAQFVPLPVSVSVEFAVAATDCIAKEVVDPTKCNLLAEKQYGFCKGSVIQKALGGEDVRVTCTLFQTQPVIPQPQPDGAEAEAPSAVPDAAGPTPSAAGPPVASVVVGPSVVAVPLPLHRAHYDLRHTFSGVASVESSSGEAFHVGKTPIVGQPSIPGGPVRLCPGRIRYFKI
modifications: desialylated
notes: asialofetuin, used as a carbon source in the growth experiment
growth of V. cholerae in the presence of the compound (OD600) [1]: No growth
